The record followed here is patent US7262325B2, “Method of preparing salicylamides” (Emisphere Technologies, Inc., priority 2000, dated 2007).

The text on the data set: A preferred base for such an alkylation reaction is sodium carbonate. […] The water content of the reaction mixture may also be reduced by performing the reaction in a low pressure atmosphere (e.g a vacuum).

On to `O=c1[n-]c(=O)c2ccccc2o1.[Na+]` [carsalam-sodium], for which the “solubility in DMAC” value is “about 6%”.
